# Laboratory results reported in paper PMC4767141, “Discovery of Potent, Orally Bioavailable, Small-Molecule Inhibitors of WNT Signaling from a Cell-Based Pathway Screen” (Journal of Medicinal Chemistry, 2015).
# Key:
# [1] = molecular target: T1, A2A (h) (Homo sapiens, UniProt P29274); test: CEREP binding panel; details: agonist radioligand, read-out: % Inhibition of Control Specific Binding
# T1 construct: purchased Millipore KinaseProfiler (kinases); Cerep (receptors and ion channels)
# [2] = molecular target: T2, A3 (h) (Homo sapiens, UniProt P0DMS8); test: CEREP binding panel; details: agonist radioligand, read-out: % Inhibition of Control Specific Binding
# T2 construct: purchased Millipore KinaseProfiler (kinases); Cerep (receptors and ion channels)
# [3] = system: α2 (non-selective); test: CEREP binding panel; details: 10 μM, antagonist radioligand
# [4] = molecular target: T3, H2 (h) (Homo sapiens, UniProt P25021); test: CEREP binding panel; details: antagonist radioligand, read-out: % Inhibition of Control Specific Binding
# T3 construct: purchased Millipore KinaseProfiler (kinases); Cerep (receptors and ion channels)
# [5] = molecular target: T4, δ2 (DOP) (h) (Homo sapiens, UniProt P41143); test: CEREP binding panel; details: agonist radioligand
# T4 construct: purchased Millipore KinaseProfiler (kinases); Cerep (receptors and ion channels)
# [6] = molecular target: T5, 5-HT7 (h) (Homo sapiens, UniProt P34969); test: CEREP binding panel; details: agonist radioligand, read-out: % Inhibition of Control Specific Binding
# T5 construct: purchased Millipore KinaseProfiler (kinases); Cerep (receptors and ion channels)
# [7] = molecular target: T6, VPAC1 (VIP1) (h) (Homo sapiens, UniProt P32241); test: CEREP binding panel; details: agonist radioligand, read-out: % Inhibition of Control Specific Binding
# T6 construct: purchased Millipore KinaseProfiler (kinases); Cerep (receptors and ion channels)
# [8] = system: Ca2+ channel (L, verapamil site) (phenylalkylamine); test: CEREP binding panel; details: 10 μM, antagonist radioligand
# [9] = system: KV channel; test: CEREP binding panel; details: 10 μM, antagonist radioligand
# [10] = molecular target: T7, BRK (Homo sapiens, UniProt Q13882); test: Millipore kinase panel; format: biochemical; details: read-out: % Control
# T7 construct: purchased Millipore KinaseProfiler (kinases); Cerep (receptors and ion channels)
# [11] = molecular target: T8, BTK (Homo sapiens, UniProt Q06187); test: Millipore kinase panel; format: biochemical; details: read-out: % Control
# T8 construct: purchased Millipore KinaseProfiler (kinases); Cerep (receptors and ion channels)
# [12] = molecular target: T9, CHK2 (Homo sapiens, UniProt O96017); test: Millipore kinase panel; format: biochemical; details: read-out: % Control
# T9 construct: purchased Millipore KinaseProfiler (kinases); Cerep (receptors and ion channels)
# [13] = molecular target: T10, CK2 (Homo sapiens, UniProt P68400); test: Millipore kinase panel; format: biochemical; details: read-out: % Control
# T10 construct: purchased Millipore KinaseProfiler (kinases); Cerep (receptors and ion channels)
# [14] = molecular target: T11, DAPK2 (Homo sapiens, UniProt Q9UIK4); test: Millipore kinase panel; format: biochemical; details: read-out: % Control
# T11 construct: purchased Millipore KinaseProfiler (kinases); Cerep (receptors and ion channels)
# [15] = molecular target: T12, DMPK (Homo sapiens, UniProt Q09013); test: Millipore kinase panel; format: biochemical; details: read-out: % Control
# T12 construct: purchased Millipore KinaseProfiler (kinases); Cerep (receptors and ion channels)
# [16] = molecular target: T13, EGFR (Homo sapiens, UniProt P00533); test: Millipore kinase panel; format: biochemical; details: read-out: % Control
# T13 construct: purchased Millipore KinaseProfiler (kinases); Cerep (receptors and ion channels)
# [17] = molecular target: T14, EPHA1 (Homo sapiens, UniProt P21709); test: Millipore kinase panel; format: biochemical; details: read-out: % Control
# T14 construct: purchased Millipore KinaseProfiler (kinases); Cerep (receptors and ion channels)
# [18] = molecular target: T15, EPHA3 (Homo sapiens, UniProt P29320); test: Millipore kinase panel; format: biochemical; details: read-out: % Control
# T15 construct: purchased Millipore KinaseProfiler (kinases); Cerep (receptors and ion channels)
# [19] = molecular target: T16, FGFR1 (Homo sapiens, UniProt P11362); test: Millipore kinase panel; format: biochemical; details: read-out: % Control
# T16 construct: purchased Millipore KinaseProfiler (kinases); Cerep (receptors and ion channels)
# [20] = molecular target: T17, FLT1 (Homo sapiens, UniProt P17948); test: Millipore kinase panel; format: biochemical; details: read-out: % Control
# T17 construct: purchased Millipore KinaseProfiler (kinases); Cerep (receptors and ion channels)
# [21] = molecular target: T18, FLT4 (Homo sapiens, UniProt P35916); test: Millipore kinase panel; format: biochemical; details: read-out: % Control
# T18 construct: purchased Millipore KinaseProfiler (kinases); Cerep (receptors and ion channels)
# [22] = molecular target: T19, IKKALPHA (Homo sapiens, UniProt O15111); test: Millipore kinase panel; format: biochemical; details: read-out: % Control
# T19 construct: purchased Millipore KinaseProfiler (kinases); Cerep (receptors and ion channels)
# [23] = molecular target: T20, JNK2ALPHA2 (Homo sapiens, UniProt P45984); test: Millipore kinase panel; format: biochemical; details: read-out: % Control
# T20 construct: purchased Millipore KinaseProfiler (kinases); Cerep (receptors and ion channels)
# [24] = molecular target: T21, MAPK1 (Homo sapiens, UniProt P27361); test: Millipore kinase panel; format: biochemical; details: read-out: % Control
# T21 construct: purchased Millipore KinaseProfiler (kinases); Cerep (receptors and ion channels)
# [25] = molecular target: T22, MET (Homo sapiens, UniProt P08581); test: Millipore kinase panel; format: biochemical; details: read-out: % Control
# T22 construct: purchased Millipore KinaseProfiler (kinases); Cerep (receptors and ion channels)
# [26] = molecular target: T23, MLK1 (Homo sapiens, UniProt P80192); test: Millipore kinase panel; format: biochemical; details: read-out: % Control
# T23 construct: purchased Millipore KinaseProfiler (kinases); Cerep (receptors and ion channels)
# [27] = molecular target: T24, MSK2 (Homo sapiens, UniProt O75676); test: Millipore kinase panel; format: biochemical; details: read-out: % Control
# T24 construct: purchased Millipore KinaseProfiler (kinases); Cerep (receptors and ion channels)
# [28] = molecular target: T25, NEK2 (Homo sapiens, UniProt P51955); test: Millipore kinase panel; format: biochemical; details: read-out: % Control
# T25 construct: purchased Millipore KinaseProfiler (kinases); Cerep (receptors and ion channels)
# [29] = molecular target: T26, PIM-1 (Homo sapiens, UniProt P11309); test: Millipore kinase panel; format: biochemical; details: read-out: % Control
# T26 construct: purchased Millipore KinaseProfiler (kinases); Cerep (receptors and ion channels)
# [30] = molecular target: T27, PKG1BETA (Homo sapiens, UniProt Q13976); test: Millipore kinase panel; format: biochemical
# T27 construct: purchased Millipore
# [31] = molecular target: T28, PTK5 (Homo sapiens, UniProt P42685); test: Millipore kinase panel; format: biochemical; details: read-out: % Control
# T28 construct: purchased Millipore KinaseProfiler (kinases); Cerep (receptors and ion channels)
# [32] = molecular target: T29, RSE (Homo sapiens, UniProt Q06418); test: Millipore kinase panel; format: biochemical; details: read-out: % Control
# T29 construct: purchased Millipore KinaseProfiler (kinases); Cerep (receptors and ion channels)
# [33] = molecular target: T30, RSK3 (Homo sapiens, UniProt Q15349); test: Millipore kinase panel; format: biochemical; details: read-out: % Control
# T30 construct: purchased Millipore KinaseProfiler (kinases); Cerep (receptors and ion channels)
# [34] = molecular target: T31, SAPK2A (Homo sapiens, UniProt Q16539); test: Millipore kinase panel; format: biochemical; details: read-out: % Control
# T31 construct: purchased Millipore KinaseProfiler (kinases); Cerep (receptors and ion channels)
# [35] = molecular target: T32, SAPK2B (Homo sapiens, UniProt Q15759); test: Millipore kinase panel; format: biochemical; details: read-out: % Control
# T32 construct: purchased Millipore KinaseProfiler (kinases); Cerep (receptors and ion channels)
# [36] = molecular target: T33, SAPK3 (Homo sapiens, UniProt P53778); test: Millipore kinase panel; format: biochemical; details: read-out: % Control
# T33 construct: purchased Millipore KinaseProfiler (kinases); Cerep (receptors and ion channels)
# [37] = molecular target: T34, SGK3 (Homo sapiens, UniProt Q96BR1); test: Millipore kinase panel; format: biochemical; details: read-out: % Control
# T34 construct: purchased Millipore KinaseProfiler (kinases); Cerep (receptors and ion channels)
# [38] = molecular target: T35, STK33 (Homo sapiens, UniProt Q9BYT3); test: Millipore kinase panel; format: biochemical; details: read-out: % Control
# T35 construct: purchased Millipore KinaseProfiler (kinases); Cerep (receptors and ion channels)
# [39] = molecular target: T36, WNK3 (Homo sapiens, UniProt Q9BYP7); test: Millipore kinase panel; format: biochemical; details: read-out: % Control
# T36 construct: purchased Millipore KinaseProfiler (kinases); Cerep (receptors and ion channels)
# [40] = molecular target: T37, CAMKIIBETA (Homo sapiens, UniProt Q13554); test: Millipore kinase panel; format: biochemical; details: read-out: % Control
# T37 construct: purchased Millipore KinaseProfiler (kinases); Cerep (receptors and ion channels)
# [41] = molecular target: T38, TLK2 (Homo sapiens, UniProt Q86UE8); test: Millipore kinase panel; format: biochemical; details: read-out: % Control
# T38 construct: purchased Millipore KinaseProfiler (kinases); Cerep (receptors and ion channels)
# [42] = molecular target: T39, TAO1 (Homo sapiens, UniProt Q7L7X3); test: Millipore kinase panel; format: biochemical; details: read-out: % Control
# T39 construct: purchased Millipore KinaseProfiler (kinases); Cerep (receptors and ion channels)
# [43] = molecular target: T40, TXK (Homo sapiens, UniProt P42681); test: Millipore kinase panel; format: biochemical; details: read-out: % Control
# T40 construct: purchased Millipore KinaseProfiler (kinases); Cerep (receptors and ion channels)
# [44] = molecular target: T41, PRKAA1 (Homo sapiens, UniProt Q13131); test: Millipore kinase panel; format: biochemical; details: read-out: % Control
# T41 construct: purchased Millipore KinaseProfiler (kinases); Cerep (receptors and ion channels)
# T17 sequence (P17948 27-1338): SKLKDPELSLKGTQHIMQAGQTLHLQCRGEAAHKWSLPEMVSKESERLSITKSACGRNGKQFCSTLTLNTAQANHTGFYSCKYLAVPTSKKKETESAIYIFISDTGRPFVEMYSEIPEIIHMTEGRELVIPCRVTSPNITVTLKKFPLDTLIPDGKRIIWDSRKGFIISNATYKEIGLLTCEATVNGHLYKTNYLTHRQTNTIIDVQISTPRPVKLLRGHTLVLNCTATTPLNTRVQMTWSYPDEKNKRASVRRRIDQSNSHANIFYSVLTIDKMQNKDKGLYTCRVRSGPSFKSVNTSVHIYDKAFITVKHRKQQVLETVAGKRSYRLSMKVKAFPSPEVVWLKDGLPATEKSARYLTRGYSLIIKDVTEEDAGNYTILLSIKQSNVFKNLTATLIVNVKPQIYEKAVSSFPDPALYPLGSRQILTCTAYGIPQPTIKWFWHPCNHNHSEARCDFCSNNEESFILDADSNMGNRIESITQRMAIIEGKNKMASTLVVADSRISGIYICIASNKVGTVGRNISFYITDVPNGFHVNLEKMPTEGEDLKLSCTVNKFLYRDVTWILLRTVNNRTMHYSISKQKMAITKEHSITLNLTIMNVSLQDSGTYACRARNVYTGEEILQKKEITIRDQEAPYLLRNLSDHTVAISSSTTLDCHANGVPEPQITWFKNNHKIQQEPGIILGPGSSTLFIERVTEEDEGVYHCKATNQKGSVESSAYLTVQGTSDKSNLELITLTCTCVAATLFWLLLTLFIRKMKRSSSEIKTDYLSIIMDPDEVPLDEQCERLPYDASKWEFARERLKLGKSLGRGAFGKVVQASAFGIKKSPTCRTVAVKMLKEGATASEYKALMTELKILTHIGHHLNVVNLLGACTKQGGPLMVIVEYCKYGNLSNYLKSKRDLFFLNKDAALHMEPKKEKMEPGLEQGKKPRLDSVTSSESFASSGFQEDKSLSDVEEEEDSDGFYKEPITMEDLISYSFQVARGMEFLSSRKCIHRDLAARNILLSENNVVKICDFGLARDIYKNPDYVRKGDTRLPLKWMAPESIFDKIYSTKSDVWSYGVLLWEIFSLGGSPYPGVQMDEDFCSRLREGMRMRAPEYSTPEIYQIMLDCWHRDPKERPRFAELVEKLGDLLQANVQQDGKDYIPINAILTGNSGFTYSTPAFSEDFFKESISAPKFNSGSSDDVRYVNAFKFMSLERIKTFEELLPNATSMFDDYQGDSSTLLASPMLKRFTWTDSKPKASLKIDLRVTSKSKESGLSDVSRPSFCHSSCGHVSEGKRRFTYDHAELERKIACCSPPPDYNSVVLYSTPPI
# T21 sequence (P27361 whole entry): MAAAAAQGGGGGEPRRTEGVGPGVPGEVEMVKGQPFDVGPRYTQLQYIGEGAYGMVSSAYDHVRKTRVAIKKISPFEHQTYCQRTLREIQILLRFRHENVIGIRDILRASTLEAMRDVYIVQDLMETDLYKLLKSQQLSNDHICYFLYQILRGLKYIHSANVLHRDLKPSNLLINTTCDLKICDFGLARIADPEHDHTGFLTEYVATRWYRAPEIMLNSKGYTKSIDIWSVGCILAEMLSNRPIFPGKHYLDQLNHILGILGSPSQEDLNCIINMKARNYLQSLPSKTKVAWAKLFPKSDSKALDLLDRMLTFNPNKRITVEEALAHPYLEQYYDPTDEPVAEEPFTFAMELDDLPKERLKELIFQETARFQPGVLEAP
# T10 sequence (P68400 whole entry): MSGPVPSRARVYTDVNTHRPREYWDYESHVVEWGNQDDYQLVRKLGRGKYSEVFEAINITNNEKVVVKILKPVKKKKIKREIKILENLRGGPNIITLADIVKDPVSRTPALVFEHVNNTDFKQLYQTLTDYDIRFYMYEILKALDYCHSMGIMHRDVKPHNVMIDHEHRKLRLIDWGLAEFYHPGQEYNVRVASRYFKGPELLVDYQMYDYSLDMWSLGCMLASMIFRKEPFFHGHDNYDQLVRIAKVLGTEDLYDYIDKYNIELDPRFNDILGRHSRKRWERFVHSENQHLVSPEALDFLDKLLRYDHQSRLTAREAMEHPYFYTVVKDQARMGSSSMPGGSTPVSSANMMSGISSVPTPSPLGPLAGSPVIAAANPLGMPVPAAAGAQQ
# T10 sequence (P67870 whole entry partner): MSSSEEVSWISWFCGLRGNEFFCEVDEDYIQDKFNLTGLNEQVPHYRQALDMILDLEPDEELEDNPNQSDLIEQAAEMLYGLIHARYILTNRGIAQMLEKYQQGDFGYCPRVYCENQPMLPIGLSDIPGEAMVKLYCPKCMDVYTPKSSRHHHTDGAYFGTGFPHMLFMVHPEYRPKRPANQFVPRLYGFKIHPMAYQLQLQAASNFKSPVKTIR
# T32 sequence (Q15759 whole entry): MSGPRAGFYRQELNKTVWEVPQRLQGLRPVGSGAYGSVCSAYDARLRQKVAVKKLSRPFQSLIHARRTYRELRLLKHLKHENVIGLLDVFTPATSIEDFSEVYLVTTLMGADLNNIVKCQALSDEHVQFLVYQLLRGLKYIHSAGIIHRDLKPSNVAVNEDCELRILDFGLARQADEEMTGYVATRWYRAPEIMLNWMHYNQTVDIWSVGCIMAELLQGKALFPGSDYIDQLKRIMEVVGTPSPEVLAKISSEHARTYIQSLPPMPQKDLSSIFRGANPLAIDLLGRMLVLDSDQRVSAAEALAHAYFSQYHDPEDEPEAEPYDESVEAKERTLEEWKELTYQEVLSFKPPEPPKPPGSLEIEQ
# T27 sequence (Q13976 1-686 isoform Q13976-2): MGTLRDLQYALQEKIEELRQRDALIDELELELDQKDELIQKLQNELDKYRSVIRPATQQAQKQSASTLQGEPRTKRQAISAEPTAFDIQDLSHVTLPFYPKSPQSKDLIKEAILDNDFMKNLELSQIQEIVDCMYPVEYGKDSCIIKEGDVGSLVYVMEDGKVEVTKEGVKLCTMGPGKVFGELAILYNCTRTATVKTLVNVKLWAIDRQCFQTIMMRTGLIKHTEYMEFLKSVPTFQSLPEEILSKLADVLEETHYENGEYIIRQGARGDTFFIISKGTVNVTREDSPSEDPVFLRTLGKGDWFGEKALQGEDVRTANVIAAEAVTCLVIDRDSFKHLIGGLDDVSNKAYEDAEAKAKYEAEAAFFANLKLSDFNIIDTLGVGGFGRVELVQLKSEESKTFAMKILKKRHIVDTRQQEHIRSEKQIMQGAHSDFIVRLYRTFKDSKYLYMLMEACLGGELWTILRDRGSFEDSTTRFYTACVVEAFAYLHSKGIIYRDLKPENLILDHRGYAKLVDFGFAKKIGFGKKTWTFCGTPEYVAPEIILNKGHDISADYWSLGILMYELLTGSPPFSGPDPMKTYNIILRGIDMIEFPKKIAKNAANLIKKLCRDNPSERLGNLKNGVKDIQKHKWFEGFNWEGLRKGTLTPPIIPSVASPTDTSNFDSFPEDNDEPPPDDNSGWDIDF
# T7 sequence (Q13882 whole entry): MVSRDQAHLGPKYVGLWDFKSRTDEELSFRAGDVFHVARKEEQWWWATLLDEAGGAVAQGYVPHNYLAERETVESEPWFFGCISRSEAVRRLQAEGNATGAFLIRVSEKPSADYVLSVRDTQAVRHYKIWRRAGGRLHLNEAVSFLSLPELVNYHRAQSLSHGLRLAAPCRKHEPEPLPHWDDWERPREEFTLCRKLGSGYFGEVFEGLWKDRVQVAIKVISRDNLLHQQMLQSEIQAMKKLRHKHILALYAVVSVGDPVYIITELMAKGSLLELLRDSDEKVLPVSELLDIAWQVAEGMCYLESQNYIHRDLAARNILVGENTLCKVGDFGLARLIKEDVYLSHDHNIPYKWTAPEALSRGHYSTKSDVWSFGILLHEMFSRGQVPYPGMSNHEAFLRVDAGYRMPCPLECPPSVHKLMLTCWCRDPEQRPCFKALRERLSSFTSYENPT
# T20 sequence (P45984 whole entry): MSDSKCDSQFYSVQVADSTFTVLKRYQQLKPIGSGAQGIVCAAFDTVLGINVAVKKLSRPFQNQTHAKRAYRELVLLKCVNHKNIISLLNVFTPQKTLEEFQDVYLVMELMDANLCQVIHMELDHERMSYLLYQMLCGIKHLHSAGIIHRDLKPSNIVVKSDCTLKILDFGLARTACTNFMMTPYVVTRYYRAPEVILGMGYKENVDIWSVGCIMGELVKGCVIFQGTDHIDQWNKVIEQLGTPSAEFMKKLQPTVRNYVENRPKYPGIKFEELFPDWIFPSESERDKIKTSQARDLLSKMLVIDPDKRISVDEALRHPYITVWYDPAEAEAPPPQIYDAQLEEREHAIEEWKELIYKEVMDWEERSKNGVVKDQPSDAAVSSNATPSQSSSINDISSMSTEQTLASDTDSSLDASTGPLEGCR
# T8 sequence (Q06187 whole entry): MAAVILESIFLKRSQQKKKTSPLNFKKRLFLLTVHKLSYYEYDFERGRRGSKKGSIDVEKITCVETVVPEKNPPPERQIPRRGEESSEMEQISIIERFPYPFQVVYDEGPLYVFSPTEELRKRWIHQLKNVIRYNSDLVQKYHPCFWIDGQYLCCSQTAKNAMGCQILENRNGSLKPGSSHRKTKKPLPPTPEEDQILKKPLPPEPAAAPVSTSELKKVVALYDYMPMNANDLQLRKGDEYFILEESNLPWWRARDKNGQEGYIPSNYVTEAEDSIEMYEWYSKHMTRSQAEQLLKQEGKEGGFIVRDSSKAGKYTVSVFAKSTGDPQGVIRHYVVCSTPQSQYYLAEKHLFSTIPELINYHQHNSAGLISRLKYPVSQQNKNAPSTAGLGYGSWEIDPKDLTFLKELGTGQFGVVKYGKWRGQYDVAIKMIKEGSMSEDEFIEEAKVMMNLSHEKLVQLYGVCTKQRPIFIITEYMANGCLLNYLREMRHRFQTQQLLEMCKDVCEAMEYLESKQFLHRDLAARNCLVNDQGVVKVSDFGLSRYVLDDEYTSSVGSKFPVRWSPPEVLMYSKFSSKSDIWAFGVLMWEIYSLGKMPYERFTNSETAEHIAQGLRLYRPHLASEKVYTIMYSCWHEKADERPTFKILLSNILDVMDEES
structure (smiles),measurement,setting,value
"Cn1cc(-c2ccc(-c3cncc(Cl)c3N3CCC4(CCNC4=O)CC3)cc2)cn1 [Compound 74, 8-(3-Chloro-5-(4-(1-methyl-1H-pyrazol-4-yl)phenyl)pyridin-4-yl)-2,8-diazaspiro[4.5]decan-1-one]",inhibition at 10 µM,[1],22%
same,inhibition at 10 µM,[2],17%
same,% Inhibition of Control Specific Binding,[3],0%
same,inhibition at 10 µM,[4],-2%
same,% Inhibition of Control Specific Binding,[5]; 10 μM,22%
same,inhibition at 10 µM,[6],1%
same,inhibition at 10 µM,[7],0%
same,% Inhibition of Control Specific Binding,[8],7%
same,% Inhibition of Control Specific Binding,[9],-13%
same,remaining activity at 1 µM,[10],11%
same,remaining activity at 1 µM,[11],-3%
same,remaining activity at 1 µM,[12],7%
same,remaining activity at 1 µM,[13],-7%
same,remaining activity at 1 µM,[14],13%
same,remaining activity at 1 µM,[15],9%
same,remaining activity at 1 µM,[16],10%
same,remaining activity at 1 µM,[17],-2%
same,remaining activity at 1 µM,[18],6%
same,remaining activity at 1 µM,[19],-49%
same,remaining activity at 1 µM,[20],-5%
same,remaining activity at 1 µM,[21],-23%
same,remaining activity at 1 µM,[22],4%
same,remaining activity at 1 µM,[23],5%
same,remaining activity at 1 µM,[24],11%
same,remaining activity at 1 µM,[25],3%
same,remaining activity at 1 µM,[26],-5%
same,remaining activity at 1 µM,[27],-6%
same,remaining activity at 1 µM,[28],6%
same,remaining activity at 1 µM,[29],-11%
same,IC50,[30]; ATP at Km,> 10 µM
same,remaining activity at 1 µM,[31],-18%
same,remaining activity at 1 µM,[32],-17%
same,remaining activity at 1 µM,[33],-5%
same,remaining activity at 1 µM,[34],1%
same,remaining activity at 1 µM,[35],0%
same,remaining activity at 1 µM,[36],13%
same,remaining activity at 1 µM,[37],-9%
same,remaining activity at 1 µM,[38],9%
same,remaining activity at 1 µM,[39],-25%
same,remaining activity at 1 µM,[40],8%
same,remaining activity at 1 µM,[41],-9%
same,remaining activity at 1 µM,[42],-14%
same,remaining activity at 1 µM,[43],-2%
same,remaining activity at 1 µM,[44],2%
"O=C1NCCC12CCN(c1c(Cl)cncc1-c1ccc(N3CCOCC3)cc1)CC2 [Compound 44, 8-(3-Chloro-5-(4-morpholin-4-ylphenyl)pyridin-4-yl)-2,8-diazaspiro[4.5]decan-1-one]",inhibition at 10 µM,[1],4%
same,inhibition at 10 µM,[2],-7%
same,% Inhibition of Control Specific Binding,[3],-1%
same,inhibition at 10 µM,[4],-16%
same,inhibition at 10 µM,[5]; read-out: % Inhibition of Control Specific Binding,12%
same,inhibition at 10 µM,[6],9%
same,inhibition at 10 µM,[7],0%
same,% Inhibition of Control Specific Binding,[8],9%
same,% Inhibition of Control Specific Binding,[9],2%
same,remaining activity at 1 µM,[10],2%
same,remaining activity at 1 µM,[11],-2%
same,remaining activity at 1 µM,[12],15%
same,remaining activity at 1 µM,[13],12%
same,remaining activity at 1 µM,[14],5%
same,remaining activity at 1 µM,[15],-7%
same,remaining activity at 1 µM,[16],5%
same,remaining activity at 1 µM,[17],-2%
same,remaining activity at 1 µM,[18],10%
same,remaining activity at 1 µM,[19],13%
same,remaining activity at 1 µM,[20],10%
same,remaining activity at 1 µM,[21],-5%
same,remaining activity at 1 µM,[22],22%
same,remaining activity at 1 µM,[23],9%
same,remaining activity at 1 µM,[24],10%
same,remaining activity at 1 µM,[25],-14%
same,remaining activity at 1 µM,[26],1%
same,remaining activity at 1 µM,[27],0%
same,remaining activity at 1 µM,[28],3%
same,remaining activity at 1 µM,[29],1%
same,remaining activity at 1 µM,[30]; read-out: % Control,-4%
same,remaining activity at 1 µM,[31],0%
same,remaining activity at 1 µM,[32],7%
same,remaining activity at 1 µM,[33],1%
same,remaining activity at 1 µM,[34],-1%
same,remaining activity at 1 µM,[35],4%
same,remaining activity at 1 µM,[36],35%
same,remaining activity at 1 µM,[37],5%
same,remaining activity at 1 µM,[38],4%
same,remaining activity at 1 µM,[39],0%
same,remaining activity at 1 µM,[40],0%
same,remaining activity at 1 µM,[41],-12%
same,remaining activity at 1 µM,[42],-2%
same,remaining activity at 1 µM,[43],4%
same,remaining activity at 1 µM,[44],15%
